The target of data set [1] is human GLP-1 receptor (hGLP-1R) (Homo sapiens, UniProt P43220). In words: cAMP response (HTRF) in PSC-HEK-293 cells expressing human GLP-1 receptor. Type of data set: cell-based. Here is the method: (§1) Each vial contained 1.8 ml cells. The vials were slowly frozen to −80° C. in isopropanol, and then transferred in liquid nitrogen for storage.
(§2) Prior to their use, frozen cells were thawed quickly at 37° C. and washed (5 min at 900 rpm) with 20 ml cell buffer (lx HBSS; 20 mM HEPES, with 0.1% BSA).
(§3) For measurement of cAMP generation, 5 μl cells (final 5000 cells/well) and 5 μl of test compound were added to a 384-well plate, followed by incubation for 30 min at room temperature.
(§4) The cAMP generated was determined using a kit from Cisbio Corp. based on HTRF (Homogenous Time Resolved Fluorescence). The cAMP assay was performed according to manufacturer's instructions (Cisbio).
(§5) cAMP content of cells was determined using a kit from Cisbio Corp. (cat. no. 62AM4PEC) based on HTRF (Homogenous Time Resolved Fluorescence). […] Medium was then removed and cells washed with PBS lacking calcium and magnesium, followed by proteinase treatment with accutase (Sigma-Aldrich cat. no. A6964). Detached cells were washed and resuspended in assay buffer (1×HBSS; 20 mM HEPES, 0.1% BSA, 2 mM IBMX) and cellular density determined. They were then diluted to 400000 cells/ml and 25 μl-aliquots dispensed into the wells of 96-well plates. For measurement, 25 μl of test compound in assay buffer was added to the wells, followed by incubation for 30 minutes at room temperature.
(In TR-FRET formats the signal depends on donor and acceptor labels being close together.)

Data set [2] deals with T1, glucagon receptor (hGCGR) (Homo sapiens, UniProt P47871).
T1 construct: expressed in transfected cells
In words: cAMP response (HTRF) in PSC-HEK-293 cells expressing human glucagon receptor. The class given is cell-based. The procedure: as §1, §2, §3, §4, §5

Data set [3] is described as follows: Chemical stability testing of peptides in solution (UHPLC). Type of data set: physicochemical. The settings on record: 0.5 mg/mL, pH 7.3 TRIS buffer. Here is the method: For chemical stability testing, the target concentration was 0.5 mg/mL pure compound in a pH 7.3 TRIS buffer (50 mM) containing m-cresol (30 mM), sodium chloride (85 mM) and polysorbate 20 (8 μM). The solution was stored for 7 days at 4° C., or 40° C. After that time, the solution was analysed by UHPLC (Analytical UHPLC Method D).
The “% Purity” after 7 days is defined by the % Relative purity at day 7 in relation to the % Relative purity at t0 following the equation
% Purity=[(% Relative purity t7)×100)]/% Relative purity t0
The % Relative purity at t0 was calculated by dividing the peak area of the peptide at t0 by the sum of all peak areas at t0 following the equation
% Relative purity t0=[(peak area t0)×100]/sum of all peak areas t0
Likewise, the % relative purity t7 was calculated by dividing the peak are of the peptide at t7 by the sum of all peak areas at t7 following the equation
% Relative purity t7=[(peak area t7)×100]/sum of all peak areas t7
Chemical stability of peptidic compounds was assessed as described in Methods.

Data set [4] is described as follows: physchem.
Protocol: Depending on the presence of remaining material as judged by visual inspection the compounds were determined to be soluble at the target concentration in the respective buffer system.
Solubility buffer system A) 100 mM Phosphate buffer pH 7.4
Solubility buffer system B) Acetate buffer pH 4.5
Solubility buffer system C) 100 mM Histidine buffer pH 5.5
Solubility buffer system D) 10 mM Glycine pH 2.5
Solubility buffer system E) 10 mM Glycine pH 2.0
Solubility buffer system F) 50 mM TRIS buffer, 30 mM m-cresol, 85 mM sodium chloride, 8 μM polysorbate 20 pH 7.3
Peptide samples were prepared in the respective solubility buffer system and solubility was assessed as described in Methods.

Where a SMILES comes first, the peptide text is derived from it. [ ]: non-standard residue; d: D form. The star is where a group is joined. DOTA = O=C(O)CN1CCN(CC(=O)O)CCN(CC(=O)*)CCN(CC(=O)O)CC1; Aib = CC(C)(N)C(=O)O

Results on one molecule are retold here after patent US20230127047A1, “SELECTIVE GIP RECEPTOR AGONISTS COMPRISING A CHELATING MOIETY FOR IMAGING AND THERAPY PURPOSES” (ANTAROS MEDICAL AB, priority 2020, published 2023).

Sequence of human GLP-1 receptor (hGLP-1R) (P43220 24-463): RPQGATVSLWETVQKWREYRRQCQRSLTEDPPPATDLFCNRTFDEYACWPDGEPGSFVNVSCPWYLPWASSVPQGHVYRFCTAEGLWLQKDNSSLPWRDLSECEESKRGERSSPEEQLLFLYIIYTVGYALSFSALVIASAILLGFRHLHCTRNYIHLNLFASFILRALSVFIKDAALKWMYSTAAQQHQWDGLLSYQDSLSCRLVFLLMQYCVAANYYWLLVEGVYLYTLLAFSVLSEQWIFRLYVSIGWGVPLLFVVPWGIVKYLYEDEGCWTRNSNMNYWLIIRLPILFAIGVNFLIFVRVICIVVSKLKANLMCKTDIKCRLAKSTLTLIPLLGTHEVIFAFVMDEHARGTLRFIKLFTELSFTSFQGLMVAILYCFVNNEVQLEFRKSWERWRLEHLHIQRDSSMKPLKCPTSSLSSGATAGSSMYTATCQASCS
T1 sequence (P47871 26-477): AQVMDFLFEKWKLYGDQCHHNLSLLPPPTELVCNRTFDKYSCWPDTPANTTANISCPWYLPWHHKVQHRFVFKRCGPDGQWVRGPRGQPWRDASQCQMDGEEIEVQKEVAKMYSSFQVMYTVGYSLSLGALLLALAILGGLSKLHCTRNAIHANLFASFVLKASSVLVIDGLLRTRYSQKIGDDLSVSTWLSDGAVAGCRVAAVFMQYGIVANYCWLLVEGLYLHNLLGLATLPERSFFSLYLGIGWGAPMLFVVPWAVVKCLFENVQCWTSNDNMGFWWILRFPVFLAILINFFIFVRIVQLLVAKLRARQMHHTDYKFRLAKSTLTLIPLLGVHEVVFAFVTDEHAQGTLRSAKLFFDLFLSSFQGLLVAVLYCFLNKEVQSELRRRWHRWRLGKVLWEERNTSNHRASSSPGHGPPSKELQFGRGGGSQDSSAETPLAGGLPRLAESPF

With `CC[C@H](C)[C@H](NC(=O)[C@H](CO)NC(=O)[C@H](CC(C)C)NC(=O)[C@H](CC(=O)O)NC(=O)[C@H](CO)NC(=O)[C@@H](NC(=O)[C@H](Cc1ccccc1)NC(=O)[C@@H](NC(=O)CNC(=O)[C@H](CCC(=O)O)NC(=O)C(C)(C)NC(=O)[C@@H](N)Cc1ccc(O)cc1)[C@@H](C)O)[C@@H](C)CC)C(=O)N[C@@H](C)C(=O)N[C@@H](CC(C)C)C(=O)N[C@@H](CC(=O)O)C(=O)N[C@@H](CCCNC(=N)N)C(=O)N[C@H](C(=O)N[C@@H](Cc1c[nH]cn1)C(=O)N[C@@H](CCC(N)=O)C(=O)N[C@@H](CCC(=O)O)C(=O)N[C@@H](CCC(=O)O)C(=O)N[C@@H](Cc1ccccc1)C(=O)N[C@H](C(=O)N[C@@H](CCC(=O)O)C(=O)N[C@@H](Cc1c[nH]c2ccccc12)C(=O)N[C@@H](CC(C)C)C(=O)N[C@@H](CC(C)C)C(=O)N[C@@H](C)C(=O)NCC(=O)NCC(=O)N[C@@H](CCCCNC(=O)CN1CCN(CC(=O)O)CCN(CC(=O)O)CCN(CC(=O)O)CC1)C(N)=O)[C@@H](C)CC)[C@@H](C)CC` [SEQ ID NO: 3, Y-Aib-EGTFISDLSIALDRIHQEEFIEWLLAGGK(DOTA)-NH2] (H-Y[Aib]EGTFISDLSIALDRIHQEEFIEWLLAGGK(DOTA)-NH2; N-terminus assumed), the EC50 in data set [1] and in data set [2] was greater than 10 nM in each case. The “% Purity after 7 days” value in data set [3] (4° C.) and in data set [3] (40° C.) was greater than 97% each time. Further, the solubility (as a rule, the concentration that dissolves in the medium under given conditions) in data set [4] (10 mM glycine buffer, pH 2) was no less than 500 µg/mL; in data set [4] (10 mM glycine buffer, pH 2.5), no less than 500 µg/mL; in data set [4] (100 mM histidine buffer, pH 5.5), no less than 500 µg/mL; in data set [4] (100 mM phosphate buffer, pH 7.4) it was no less than 500 µg/mL; in data set [4] (acetate buffer, pH 4.5), less than 500 µg/mL; in data set [4] (pH 7.3), no less than 500 µg/mL.
